Source: ChEMBL document CHEMBL3885861, “Open TG-GATES”

Species on record: Rattus norvegicus
Assay: Open TG-GATES - Regimen: Daily Repeat
Assay type: toxicity, organism-based, Sprague-Dawley
Design: regimen Daily Repeat, gender Male, age 6 weeks
Settings: in vivo, po, 300 mg/kg, route gavage, dose level High; for APTT / Bas / Eos / Fbg / Hb / Ht / Lym / MCH / MCHC / MCV / Mono / Neu / PT / Plat / RBC / Ret / WBC: tissue Blood; for KIDNEY_L / KIDNEY_R / KIDNEY_TOTAL: tissue Kidney; for LIVER: tissue Liver; for A/G / ALP / ALT / AST / BUN / CRE / Ca / Cl / DBIL / GLC / IP / K / LDH / Na / PL / RALB / TBIL / TC / TG / TP / gamma-GTP: tissue Plasma

Compound `Cc1cccc(Nc2ccccc2C(=O)O)c1C` [MEFENAMIC ACID] has a TERMINAL_BW (72 h, time 3 day) of 221.3 g, an APTT (72 h, time 3 day) of 18.9 s and a Bas (72 h, time 3 day) of 0%. The Eos (72 h, time 3 day) was 1%, the Fbg (72 h, time 3 day) was 345 mg/dL and the Hb (72 h, time 3 day) was 9.4 g/dL. For the same compound, the Ht (72 h, time 3 day) was 28%, the Lym (72 h, time 3 day) was 61.8% and the MCH (72 h, time 3 day) was 21.6 pg. For the same compound, the MCHC (72 h, time 3 day) was 33.5%, the MCV (72 h, time 3 day) was 64.6 fL and the Mono (72 h, time 3 day) was 3.8%. For the same compound, the Neu (72 h, time 3 day) was 28.4%, the PT (72 h, time 3 day) was 11.3 s and the Plat (72 h, time 3 day) was 117.3 x10_4/uL. It also gave an RBC (72 h, time 3 day) of 434.2 x10_4/ul, a Ret (72 h, time 3 day) of 13.5% and a WBC (72 h, time 3 day) of 154.9 x10_2/uL. For the same compound, the KIDNEY_L (72 h, time 3 day) was 1 g, the KIDNEY_R (72 h, time 3 day) was 1 g and the KIDNEY_TOTAL (72 h, time 3 day) was 2 g. For the same compound, the LIVER (72 h, time 3 day) was 11 g, the A/G (72 h, time 3 day) was 1.2 and the ALP (72 h, time 3 day) was 624.6 IU/L. For the same compound, the ALT (72 h, time 3 day) was 28.6 IU/L, the AST (72 h, time 3 day) was 54.6 IU/L and the BUN (72 h, time 3 day) was 15 mg/dL. For the same compound, the CRE (72 h, time 3 day) was 0.4 mg/dL, the Ca (72 h, time 3 day) was 10.7 mg/dL and the Cl (72 h, time 3 day) was 103.4 meq/L. The DBIL (72 h, time 3 day) was 0.08 mg/dL, the GLC (72 h, time 3 day) was 175 mg/dL and the IP (72 h, time 3 day) was 6.7 mg/dL. It also gave a K (72 h, time 3 day) of 4.1 meq/L, an LDH (72 h, time 3 day) of 155.2 IU/L and a Na (72 h, time 3 day) of 140.2 meq/L. For the same compound, the PL (72 h, time 3 day) was 170.6 mg/dL, the RALB (72 h, time 3 day) was 2.7 g/dL and the TBIL (72 h, time 3 day) was 0.1 mg/dL. For the same compound, the TC (72 h, time 3 day) was 88.4 mg/dL, the TG (72 h, time 3 day) was 161.8 mg/dL and the TP (72 h, time 3 day) was 4.9 g/dL. For the same compound, the gamma-GTP (72 h, time 3 day) was 1.2 IU/L, the TERMINAL_BW ([…], time 7 day) was 251.1 g and the TERMINAL_BW ([…], time 14 day) was 275.2 g. It also gave a TERMINAL_BW ([…], time 28 day) of 342.8 g, an APTT ([…], time 7 day) of 17.3 s and a Bas ([…], time 7 day) of 0%. The Eos ([…], time 7 day) was 1%, the Fbg ([…], time 7 day) was 304.2 mg/dL and the Hb ([…], time 7 day) was 11.1 g/dL. The Ht ([…], time 7 day) was 32.3%, the Lym ([…], time 7 day) was 63.6% and the MCH ([…], time 7 day) was 22 pg. For the same compound, the MCHC ([…], time 7 day) was 34.4%, the MCV ([…], time 7 day) was 64.1 fL and the Mono ([…], time 7 day) was 3.4%. The Neu ([…], time 7 day) was 28.2%, the PT ([…], time 7 day) was 11.5 s and the Plat ([…], time 7 day) was 160 x10_4/uL. For the same compound, the RBC ([…], time 7 day) was 506.4 x10_4/ul, the Ret ([…], time 7 day) was 14.9% and the WBC ([…], time 7 day) was 201.4 x10_2/uL. It also gave an APTT ([…], time 14 day) of 19.6 s, a Bas ([…], time 14 day) of 0% and an Eos ([…], time 14 day) of 1%. The Fbg ([…], time 14 day) was 291.8 mg/dL, the Hb ([…], time 14 day) was 11.2 g/dL and the Ht ([…], time 14 day) was 33.5%. It also gave a Lym ([…], time 14 day) of 56.8%, an MCH ([…], time 14 day) of 23.9 pg and an MCHC ([…], time 14 day) of 33.2%. It also gave an MCV ([…], time 14 day) of 71.9 fL, a Mono ([…], time 14 day) of 2.8% and a Neu ([…], time 14 day) of 37.2%. It also gave a PT ([…], time 14 day) of 11.9 s, a Plat ([…], time 14 day) of 200.5 x10_4/uL and an RBC ([…], time 14 day) of 466.8 x10_4/ul. For the same compound, the Ret ([…], time 14 day) was 18.8%, the WBC ([…], time 14 day) was 198.5 x10_2/uL and the APTT ([…], time 28 day) was 19 s. The Bas ([…], time 28 day) was 0%, the Eos ([…], time 28 day) was 0.8% and the Fbg ([…], time 28 day) was 318 mg/dL. The Hb ([…], time 28 day) was 10 g/dL, the Ht ([…], time 28 day) was 32.3% and the Lym ([…], time 28 day) was 54.2%. The MCH ([…], time 28 day) was 21.1 pg, the MCHC ([…], time 28 day) was 30.8% and the MCV ([…], time 28 day) was 68.5 fL. For the same compound, the Mono ([…], time 28 day) was 2.8%, the Neu ([…], time 28 day) was 39.2% and the PT ([…], time 28 day) was 11.6 s. It also gave a Plat ([…], time 28 day) of 186.5 x10_4/uL, an RBC ([…], time 28 day) of 473 x10_4/ul and a Ret ([…], time 28 day) of 22.3%. The WBC ([…], time 28 day) was 274.1 x10_2/uL, the KIDNEY_L ([…], time 7 day) was 1.2 g and the KIDNEY_R ([…], time 7 day) was 1.1 g. For the same compound, the KIDNEY_TOTAL ([…], time 7 day) was 2.3 g, the KIDNEY_L ([…], time 14 day) was 1.2 g and the KIDNEY_R ([…], time 14 day) was 1.2 g. It also gave a KIDNEY_TOTAL ([…], time 14 day) of 2.4 g, a KIDNEY_L ([…], time 28 day) of 1.4 g and a KIDNEY_R ([…], time 28 day) of 1.4 g. The KIDNEY_TOTAL ([…], time 28 day) was 2.8 g, the LIVER ([…], time 7 day) was 12.2 g and the LIVER ([…], time 14 day) was 13.3 g. For the same compound, the LIVER ([…], time 28 day) was 15.2 g, the A/G ([…], time 7 day) was 1.3 and the ALP ([…], time 7 day) was 574.4 IU/L. The ALT ([…], time 7 day) was 29.6 IU/L, the AST ([…], time 7 day) was 60.6 IU/L and the BUN ([…], time 7 day) was 15.8 mg/dL. It also gave a CRE ([…], time 7 day) of 0.4 mg/dL, a Ca ([…], time 7 day) of 10.3 mg/dL and a Cl ([…], time 7 day) of 103.6 meq/L. It also gave a DBIL ([…], time 7 day) of 0.084 mg/dL, a GLC ([…], time 7 day) of 197.2 mg/dL and an IP ([…], time 7 day) of 7.3 mg/dL. It also gave a K ([…], time 7 day) of 3.9 meq/L, an LDH ([…], time 7 day) of 227.8 IU/L and a Na ([…], time 7 day) of 140.6 meq/L. The PL ([…], time 7 day) was 150.4 mg/dL, the RALB ([…], time 7 day) was 2.9 g/dL and the TBIL ([…], time 7 day) was 0.1 mg/dL. The TC ([…], time 7 day) was 79.4 mg/dL, the TG ([…], time 7 day) was 136.4 mg/dL and the TP ([…], time 7 day) was 5 g/dL. It also gave a gamma-GTP ([…], time 7 day) of 1 IU/L, an A/G ([…], time 14 day) of 1.2 and an ALP ([…], time 14 day) of 476.5 IU/L. The ALT ([…], time 14 day) was 30 IU/L, the AST ([…], time 14 day) was 57.2 IU/L and the BUN ([…], time 14 day) was 19.2 mg/dL. The CRE ([…], time 14 day) was 0.5 mg/dL, the Ca ([…], time 14 day) was 10.4 mg/dL and the Cl ([…], time 14 day) was 104 meq/L. The DBIL ([…], time 14 day) was 0.1 mg/dL, the GLC ([…], time 14 day) was 187.5 mg/dL and the IP ([…], time 14 day) was 6.5 mg/dL. It also gave a K ([…], time 14 day) of 4.4 meq/L, an LDH ([…], time 14 day) of 145.2 IU/L and a Na ([…], time 14 day) of 141.5 meq/L. It also gave a PL ([…], time 14 day) of 162.2 mg/dL, an RALB ([…], time 14 day) of 2.9 g/dL and a TBIL ([…], time 14 day) of 0.1 mg/dL. For the same compound, the TC ([…], time 14 day) was 78 mg/dL, the TG ([…], time 14 day) was 170.2 mg/dL and the TP ([…], time 14 day) was 5.2 g/dL. It also gave a gamma-GTP ([…], time 14 day) of 1.8 IU/L, an A/G ([…], time 28 day) of 1.2 and an ALP ([…], time 28 day) of 382.8 IU/L. For the same compound, the ALT ([…], time 28 day) was 30.8 IU/L, the AST ([…], time 28 day) was 68.2 IU/L and the BUN ([…], time 28 day) was 20.5 mg/dL. It also gave a CRE ([…], time 28 day) of 0.5 mg/dL, a Ca ([…], time 28 day) of 10.4 mg/dL and a Cl ([…], time 28 day) of 104.2 meq/L. The DBIL ([…], time 28 day) was 0.1 mg/dL, the GLC ([…], time 28 day) was 190.5 mg/dL and the IP ([…], time 28 day) was 6.6 mg/dL. For the same compound, the K ([…], time 28 day) was 3.7 meq/L, the LDH ([…], time 28 day) was 166.2 IU/L and the Na ([…], time 28 day) was 141.2 meq/L. It also gave a PL ([…], time 28 day) of 176.8 mg/dL, an RALB ([…], time 28 day) of 2.9 g/dL and a TBIL ([…], time 28 day) of 0.2 mg/dL. The TC ([…], time 28 day) was 87.2 mg/dL, the TG ([…], time 28 day) was 212 mg/dL and the TP ([…], time 28 day) was 5.3 g/dL. It also gave a gamma-GTP ([…], time 28 day) of 2 IU/L.
